Measured values as given in US20170305965A1, “Fab REGION-BINDING PEPTIDE” (KANEKA CORPORATION, priority 2014, published 2017).

Tests used:
[1] = system: IgG-Fab of anti-HER2 monoclonal antibody (Trastuzumab); experiment: Biacore 3000 surface plasmon resonance analysis of affinity of SpG variants for immobilized IgG-Fab; assay type: binding, human; conditions: for KA (affinity constant, KA=kon/koff) / koff / kon: Anti-HER2 antibody - Fab immobilized on CM5, peptide 0.1-0.8 μM, 25° C., pH 7.4, 1:1 binding model; for KA Vs. Wild: ratio of KA to that of GB2*-Wild.1d, Anti-HER2 antibody - Fab
Description: A humanized monoclonal IgG product as a raw material was fragmented into a Fab fragment and a Fc fragment using papain, and only the Fab fragment was separated and purified. Hereinafter, a method for producing IgG-Fab derived from anti-HER2 monoclonal antibody (generic name: Trastuzumab) is described. In the present disclosure, when other IgG-Fab was used for evaluation, the fragment was basically prepared in a similar method.
Specifically, a humanized monoclonal IgG product (“HERCEPTIN” manufactured by CHUGAI PHARMACEUTICAL CO., LTD., in the case of anti-HER2 monoclonal antibody) was dissolved in a buffer for papain treatment (0.1 M AcOH—AcONa, 2 mM EDTA, 1 mM cysteine, pH 5.5), and agarose on which papain was immobilized (“Papain Agarose from papaya latex” manufactured by SIGMA) was added thereto. The mixture was incubated with stirring by a rotator at 37° C. for about 8 hours. The IgG-Fab was purified by recovering the IgG-Fab as a flow-through fraction in an affinity chromatography using KanCapA column (manufactured by GE Healthcare Bioscience) from the reaction mixture which contained both of a Fab fragment and a Fc fragment and which was separated from the agarose on which papain was immobilized. The obtained crude IgG-Fab solution was subjected to purification by gel filtration chromatography using Superdex 75 10/300 GL column to obtain IgG-Fab solution. In the chromatography, a standard buffer was used for equilibration and separation. Similarly to the above-described Example 1, AKTAprime plus system was used in the chromatography for protein purification.
The affinity of each of the SpG-β2* variant obtained in the above-described Example 1(2) for the IgG-Fab of anti-HER2 monoclonal antibody was evaluated using a biosensor Biacore 3000 (manufactured by GE Healthcare Bioscience) utilizing surface plasmon resonance. In the present Example, the IgG-Fab obtained in the above-described Example 2(1) was immobilized on a sensor tip, and each of the peptide was flown on the tip to detect the interaction between the two. The IgG-Fab was immobilized on a sensor tip CM5 by amine coupling method using N-hydroxysuccinimide (NHS) and N-ethyl-N′-(3-dimethylaminopropyl)carbodiimide hydrochloride (EDC), and ethanolamine was used for blocking. All of the sensor tip and reagents for immobilization was manufactured by GE Healthcare Bioscience. The IgG-Fab solution was diluted to about 10 times using a buffer for immobilization (10 mM AcOH—AcONa, pH 4.5), and the IgG-Fab was immobilized on the sensor tip in accordance with the protocol attached to the Biacore 3000. In addition, a reference cell as negative control was also prepared by activating another flow cell on the tip with EDC/NHS and then immobilizing human serum albumin (manufactured by Wako Pure Chemical Industries, Ltd.). Peptide solutions of each of the SpG-β2* variant having concentrations of […] were prepared using a running buffer (20 mM NaH2PO4—Na2HPO4, 150 mM NaCl, 0.005% P-20, pH 7.4). The peptide solution was added to the sensor tip in a flow rate of 10 μL/min for 4 minutes. Bonding response curves at the time of addition (association phase, for 4 minutes) and after the addition (dissociation phase, for 4 minutes) were sequentially obtained at a measurement temperature of 25° C. After each measurement, the added peptide remaining on the sensor tip was removed by flowing the running buffer for 5 minutes or more; and about 10 mM NaOH was added for wash between the measurements if required.
However, the concentration of a protein solution was adjusted to 0.8 μM, bonding response curves at the time of adding the solution (association phase, for 1 minute) and after the addition (dissociation phase, for 2 minutes) were obtained, and a fitting analysis was carried out using one concentration of the solution.

Fab region of IgG = conditions: cited from earlier work

Row | Substance | KA (affinity constant, KA=kon/koff) [1] | koff [1] | kon [1] | KA Vs. Wild [1] | other results
1 | GB2*-E15W.1d: SpG-β2* one residue variant with E15W, amino acid sequence SEQ ID NO: 23 (TTYKLVINGKTLKGWTTTKAVDAETAERAFRQYATDNGVEGMWTYDPATKTFTVTE; SpG Mutant) | 1.08e+07 M⁻¹ | 0.011 s⁻¹ | 119000 s/M | 4.8 | 
2 | GB2*-E15Y.1d: SpG-β2* one residue variant with E15Y, amino acid sequence SEQ ID NO: 21 (TTYKLVINGKTLKGYTTTKAVDAETAERAFRQYATDNGVEGMWTYDPATKTFTVTE; SpG Mutant) | 9.3e+06 M⁻¹ | 0.01 s⁻¹ | 92000 s/M | 4.0 | 
3 | GB2*-T02R.1d: SpG-β2* one residue variant with T02R, amino acid sequence SEQ ID NO: 19 (TRYKLVINGKTLKGETTTKAVDAETAERAFRQYATDNGVEGMWTYDPATKTFTVTE; SpG Mutant) | 9.8e+06 M⁻¹ | 0.01 s⁻¹ | 98000 s/M | 4.3 | 
4 | GB2*-T02R/E15Y.1d: two residues variant of SpG-β2* with T02R and E15Y, SEQ ID NO: 27 (TRYKLVINGKTLKGYTTTKAVDAETAERAFRQYATDNGVEGMWTYDPATKTFTVTE; SpG Mutant) |  |  |  |  | binding response (bonding response curve, FIG. 3) ([1]; protein solution 0.8 μM, raw bonding response curve compared under the same concentration): higher than those of GB2*-Wild.1d and GB2*-T02R.1d
5 | GB2*-Wild.1d: SpG β2 domain variant having excellent thermal stability, SEQ ID NO: 3; comparative example before introducing the mutation (TTYKLVINGKTLKGETTTKAVDAETAERAFRQYATDNGVEGMWTYDPATKTFTVTE; SpG Mutant) [reference compound] | 2.3e+06 M⁻¹ | 0.038 s⁻¹ | 88000 s/M |  | difference between association constant of the Patent Document 2 variant and association constant shown in Table 2 ([1]; GB2*-Wild.1d (Table 2) versus variant of Patent Document 2): about 1.4 times
6 | GB2-E15W.1d: E15W mutation introduced into wild SpG-β2 domain, SEQ ID NO: 25 (TTYKLVINGKTLKGWTTTKAVDAETAEKAFKQYANDNGVDGVWTYDDATKTFTVTE; SpG Mutant) |  |  |  |  | association constant KA ([1]; fitting analysis using one concentration, 0.8 μM, association phase 1 minute, dissociation phase 2 minutes): 1.6e+06 M⁻¹
7 | GB2-Wild.1d: wild β2 domain of Protein G, SEQ ID NO: 2 (TTYKLVINGKTLKGETTTKAVDAETAEKAFKQYANDNGVDGVWTYDDATKTFTVTE; Streptococcus sp. GX7809) |  |  |  |  | Kd (Fab region of IgG; described in Table 1 of Patent Document 2, read-out: dissociation constant): 2.57 µM; association constant (inverse number of the dissociation constant of Patent Document 2) (Fab region of IgG; inverse of the dissociation constant in Table 1 of Patent Document 2): 400000 M⁻¹
